Measurements published in PMC7188728, “A phase I study investigation of metabolism, and disposition of [^14C]-anlotinib after an oral administration in patients with advanced refractory solid tumors” (Cancer Chemotherapy and Pharmacology, 2020).
Counter-ions that a name gives are not always drawn.

Experiments:
[1] = Adverse events after a single dose of 14C anlotinib suspension; format: in vivo, human
[2] = Total radioactivity pharmacokinetics in plasma after single oral [14C]-anlotinib hydrochloride; format: in vivo, human
Procedure: The blood samples were collected before orally administration and 0.5, 2, 4, 8, 10, 12, 24, 48, 72, 96, 120, 144, 168, 192, 216, 240, 288, 312, 384, 408, 456, 480, 552, 840, 888, and 1416 h after orally administration. An aliquot of the blood samples was mixed gently and chilled immediately under − 20 °C; the remainder was centrifuged at 1660 g for 10 min at 4 °C to separate the plasma samples.
Levels of radioactivity in plasma, urine, and extracts of fecal samples were determined by mixing individual samples with 5 mL scintillation cocktail and determined by counting directly in a liquid scintillation counter (LSC). Blood, fecal homogenates, and post extraction solids were combusted with OX-501 Biological Sample Oxidizer, the ^14CO2 formed were trapped directly in 15 mL scintillation cocktail, followed by counting with LSC. Samples were assayed with a liquid scintillation counter for 5 min.
The peak concentration (Cmax) and the time to Cmax (Tmax) were obtained through the plasma concentration directly. The area under concentration–time curve up to the last measured time point (AUC0−t) was calculated by the trapezoidal rule. The k was estimated by linear regression analysis of the terminal portion of the log concentration–time data, and the elimination half-life (t1/2) was calculated through the coefficient 0.693/k. The renal clearance (CLR) was calculated by dividing the cumulative amount excreted into urine (Cum. Ae−U) by plasma AUC0−t.

[3] = six male patients, single oral 14.15 mg/80 or 120 µCi
[4] = suspension here vs capsule in the previous study

For `COc1cc2c(Oc3ccc4[nH]c(C)cc4c3F)ccnc2cc1OCC1(N)CC1` [anlotinib, 1-[[4-(4-fluoro-2-methyl-1H-indol-5-yloxy)-6-methoxyquinolin-7-yl]oxy]methyl) cyclopropanamine dihydrochloride], the “Proteinuria: number of cases of grade 3 (%)” value ([1]; D1 ~ D18, N = 6) was 0 n (%), the “Rapid atrial fibrillation: number of cases of grade 1/2 (%)” value ([1]; D1 ~ D18, N = 6) was 1 (16.67%) n (%) and the “Rapid atrial fibrillation: number of cases of grade 3 (%)” value ([1]; D1 ~ D18, N = 6) was 0 n (%). For the same molecule, the “Sinus bradycardia: number of cases of grade 1/2 (%)” value ([1]; D1 ~ D18, N = 6) was 1 (16.67%) n (%), the “Sinus bradycardia: number of cases of grade 3 (%)” value ([1]; D1 ~ D18, N = 6) was 0 n (%) and the “Sinus tachycardia: number of cases of grade 1/2 (%)” value ([1]; D1 ~ D18, N = 6) was 1 (16.67%) n (%). The “Sinus tachycardia: number of cases of grade 3 (%)” value ([1]; D1 ~ D18, N = 6) was 0 n (%), the “Stomachache: number of cases of grade 1/2 (%)” value ([1]; D1 ~ D18, N = 6) was 1 (16.67%) n (%) and the “Stomachache: number of cases of grade 3 (%)” value ([1]; D1 ~ D18, N = 6) was 0 n (%). The “Alkaline phosphatase increased: number of cases of grade 1/2 (%)” value ([1]; Research process, N = 6) was 1 (16.67%) n (%), the “Alkaline phosphatase increased: number of cases of grade 3 (%)” value ([1]; Research process, N = 6) was 0 n (%) and the “Anemia: number of cases of grade 1/2 (%)” value ([1]; Research process, N = 6) was 1 (16.67%) n (%). The “Anemia: number of cases of grade 3 (%)” value ([1]; Research process, N = 6) was 0 n (%), the “Aspartate aminotransferase increased: number of cases of grade 1/2 (%)” value ([1]; Research process, N = 6) was 0 n (%) and the “Aspartate aminotransferase increased: number of cases of grade 3 (%)” value ([1]; Research process, N = 6) was 1 (16.67%) n (%). For the same molecule, the “At least once (any adverse event): number of cases of grade 3 (%)” value ([1]; Research process, N = 6) was 3 (50%) n (%), the “Constipation: number of cases of grade 1/2 (%)” value ([1]; Research process, N = 6) was 2 (33.33%) n (%) and the “Constipation: number of cases of grade 3 (%)” value ([1]; Research process, N = 6) was 0 n (%). For the same molecule, the “Cough: number of cases of grade 1/2 (%)” value ([1]; Research process, N = 6) was 1 (16.67%) n (%), the “Cough: number of cases of grade 3 (%)” value ([1]; Research process, N = 6) was 0 n (%) and the “Diarrhea: number of cases of grade 1/2 (%)” value ([1]; Research process, N = 6) was 2 (33.33%) n (%). The “Diarrhea: number of cases of grade 3 (%)” value ([1]; Research process, N = 6) was 0 n (%), the “Hemoptysis: number of cases of grade 1/2 (%)” value ([1]; Research process, N = 6) was 1 (16.67%) n (%) and the “Hemoptysis: number of cases of grade 3 (%)” value ([1]; Research process, N = 6) was 0 n (%). The “Hypertriglyceridemia: number of cases of grade 1/2 (%)” value ([1]; Research process, N = 6) was 1 (16.67%) n (%), the “Hypertriglyceridemia: number of cases of grade 3 (%)” value ([1]; Research process, N = 6) was 0 n (%) and the “Hypoalbuminemia: number of cases of grade 1/2 (%)” value ([1]; Research process, N = 6) was 3 (50%) n (%). The “Hypoalbuminemia: number of cases of grade 3 (%)” value ([1]; Research process, N = 6) was 0 n (%), the “Hypocalcemia: number of cases of grade 1/2 (%)” value ([1]; Research process, N = 6) was 1 (16.67%) n (%) and the “Hypocalcemia: number of cases of grade 3 (%)” value ([1]; Research process, N = 6) was 0 n (%). For the same molecule, the “Hypophosphatemia: number of cases of grade 1/2 (%)” value ([1]; Research process, N = 6) was 1 (16.67%) n (%), the “Hypophosphatemia: number of cases of grade 3 (%)” value ([1]; Research process, N = 6) was 1 (16.67%) n (%) and the “Hypothyroidism: number of cases of grade 1/2 (%)” value ([1]; Research process, N = 6) was 1 (16.67%) n (%). For the same molecule, the “Hypothyroidism: number of cases of grade 3 (%)” value ([1]; Research process, N = 6) was 0 n (%), the “Increased alanine aminotransferase: number of cases of grade 1/2 (%)” value ([1]; Research process, N = 6) was 1 (16.67%) n (%) and the “Increased alanine aminotransferase: number of cases of grade 3 (%)” value ([1]; Research process, N = 6) was 1 (16.67%) n (%). The “Increased blood bilirubin: number of cases of grade 1/2 (%)” value ([1]; Research process, N = 6) was 1 (16.67%) n (%), the “Increased blood bilirubin: number of cases of grade 3 (%)” value ([1]; Research process, N = 6) was 1 (16.67%) n (%) and the “Increased lactate dehydrogenase: number of cases of grade 1/2 (%)” value ([1]; Research process, N = 6) was 1 (16.67%) n (%). For the same molecule, the “Increased lactate dehydrogenase: number of cases of grade 3 (%)” value ([1]; Research process, N = 6) was 0 n (%), the “Increased lipase: number of cases of grade 1/2 (%)” value ([1]; Research process, N = 6) was 2 (33.33%) n (%) and the “Increased lipase: number of cases of grade 3 (%)” value ([1]; Research process, N = 6) was 2 (33.33%) n (%). For the same molecule, the “Increased γ-glutamyl transpeptidase: number of cases of grade 1/2 (%)” value ([1]; Research process, N = 6) was 1 (16.67%) n (%), the “Increased γ-glutamyl transpeptidase: number of cases of grade 3 (%)” value ([1]; Research process, N = 6) was 1 (16.67%) n (%) and the “Insomnia: number of cases of grade 1/2 (%)” value ([1]; Research process, N = 6) was 2 (33.33%) n (%). For the same molecule, the “Insomnia: number of cases of grade 3 (%)” value ([1]; Research process, N = 6) was 0 n (%), the “Liver function damage: number of cases of grade 1/2 (%)” value ([1]; Research process, N = 6) was 0 n (%) and the “Liver function damage: number of cases of grade 3 (%)” value ([1]; Research process, N = 6) was 1 (16.67%) n (%). For the same molecule, the “Proteinuria: number of cases of grade 1/2 (%)” value ([1]; Research process, N = 6) was 1 (16.67%) n (%), the “Proteinuria: number of cases of grade 3 (%)” value ([1]; Research process, N = 6) was 0 n (%) and the “Rapid atrial fibrillation: number of cases of grade 1/2 (%)” value ([1]; Research process, N = 6) was 1 (16.67%) n (%). For the same molecule, the “Rapid atrial fibrillation: number of cases of grade 3 (%)” value ([1]; Research process, N = 6) was 0 n (%), the “Sinus bradycardia: number of cases of grade 1/2 (%)” value ([1]; Research process, N = 6) was 1 (16.67%) n (%) and the “Sinus bradycardia: number of cases of grade 3 (%)” value ([1]; Research process, N = 6) was 0 n (%). The “Sinus tachycardia: number of cases of grade 1/2 (%)” value ([1]; Research process, N = 6) was 1 (16.67%) n (%), the “Sinus tachycardia: number of cases of grade 3 (%)” value ([1]; Research process, N = 6) was 0 n (%) and the “Stomachache: number of cases of grade 1/2 (%)” value ([1]; Research process, N = 6) was 1 (16.67%) n (%). For the same molecule, the “Stomachache: number of cases of grade 3 (%)” value ([1]; Research process, N = 6) was 0 n (%), the “Patients in whom adverse events occurred” value ([1]; six patients, after a single dosage) was “five” and the “Patients in whom severe adverse events (SAE) occurred” value ([1]; six patients, follow-up period) was “one”. For the same molecule, the “AUC0-last (AUClast) of total radioactivity in plasma, average” value [2, 3] was 4071 h∙ng Eq./g, the “AUC0-∞ of total radioactivity in plasma, average” value [2, 3] was 13,555 h∙ng Eq./g and the “Cmax of total radioactivity (TRA) in plasma, average” value [2, 3] was 18.80 ng Eq./g. For the same molecule, the “Tmax of total radioactivity (TRA) in plasma, average” value [2, 3] was 4.42 h, the “AUC relative to the published phase I study” value [2, 4] was “twice” and the “Cmax relative to the published phase I study” value [2, 4] was “twice”.
